{"source": "paper PMC9127185", "about": "“A Pyridazinone Compound for Effectively Treating Non-alcoholic Steatohepatitis by Targeting THRβ” (Frontiers in Chemistry, 2022)", "key": {"[1]": {"assay": "Tissue distribution study after oral administration", "assay_type": "in vivo, C57BL/6J mice", "settings": "for Time of highest tissue level: oral", "description": "The frozen mice plasma samples and tissue homogenates were thawed at room temperature, vortexed for 1 min, then taken out in 10-μl aliquots in a 1.50-ml centrifuge tube, and this was then mixed with 1 μl of standard solution and 50 μl of internal standard (IS) solution, which was then dissolved and diluted with acetonitrile. Subsequently, it was vortexed for 3 min and at 14,000 rpm centrifugation for 5 min. The adopted 1 μl of the supernatant was used for sample injection analysis.\nA total of 24 male C57/BL6J mice were divided into 4 groups at random, with 6 mice in a group for tissue distribution at 0.25, 1, 6, and 24 h. They were given YWS01125 after oral administration of 20 mg/kg, and then sacrificed at 0.25, 1, 6, and 24 h. Tissues from the heart, liver, spleen, lungs, kidneys, stomach, small intestine, colon, fat, muscle, testes, and brain were taken and rinsed with saline solution to remove the blood and connective tissues ([Geng et al., 2015]; [He et al., 2017]; [Jiang et al., 2017]), then put on the filter paper and weighed, quickly. Each tissue sample was homogenized by using five times of the tissue weight saline (w/v). All homogenates were stored at−80 °C until analysis.\nThe tissue distributions of YWS01125 were investigated in C57BL/6J mice at 0.25, 1, 6, and 24 h after oral administration. The examined organs or tissues included the heart, liver, spleen, lungs, kidneys, stomach, small intestine, colon, fat, muscle, testes, and brain. The linear ranges, correlation coefficients, weight factors, and regression equations for all analytes in the mouse plasma and tissue homogenates are shown in Table 5. The concentration of each tissue at 0.25 h is indicated as stomach > kidneys > liver > colon > small intestine > testes > heart > spleen > lungs > fat; concentration of each tissue at 1 h is small intestine > colon > liver > stomach > kidneys > lungs > heart > fat > testes; concentration of each tissue at 6 h is small intestine > colon > stomach > liver > kidneys > heart; and concentration of each tissue at 24 h is that the whole tissues were not detected (Table 6). […] The content of the compound in the stomach was much higher than that in any other organ. The highest levels were reached 0.25 h after oral administration, then decreased thereafter. For the heart, liver, kidneys, lungs, small intestine, colon, and fat, the highest level was reached 1 h after oral administration, and it reached the highest levels at 0.25 h in the spleen, stomach, and testes."}, "[2]": {"assay": "Stability of liver microsomes study (human)", "assay_type": "in vitro ADME", "settings": "human liver microsomes 0.50 mg/ml, NADPH-generating system, 37°C, 0-90 min"}, "THRβ": {"target": "T1, THRβ (Homo sapiens, UniProt P10828)", "T1 sequence (P10828 1-461)": "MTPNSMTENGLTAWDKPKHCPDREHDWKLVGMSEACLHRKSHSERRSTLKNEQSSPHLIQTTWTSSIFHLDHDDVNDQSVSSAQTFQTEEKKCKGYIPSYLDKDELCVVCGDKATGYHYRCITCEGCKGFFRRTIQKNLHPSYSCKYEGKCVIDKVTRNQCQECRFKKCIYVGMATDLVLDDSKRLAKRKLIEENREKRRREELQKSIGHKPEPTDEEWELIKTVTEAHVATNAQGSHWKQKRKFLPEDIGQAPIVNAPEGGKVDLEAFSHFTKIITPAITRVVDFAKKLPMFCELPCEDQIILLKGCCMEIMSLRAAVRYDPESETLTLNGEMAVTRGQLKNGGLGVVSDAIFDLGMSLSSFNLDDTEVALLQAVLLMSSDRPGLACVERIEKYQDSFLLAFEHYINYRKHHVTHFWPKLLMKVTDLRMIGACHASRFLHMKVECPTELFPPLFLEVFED", "assay": "Selectivity and activity for THRβ", "settings": "in words, no data shown"}, "Cytotoxicity": {"assay": "Cytotoxicity", "assay_type": "cell-based", "settings": "in words, no data shown"}, "acute liver injury model": {"system": "acute liver injury model", "assay": "Acute liver injury model", "assay_type": "in vivo, rat", "settings": "in words, no data shown"}, "[3]": {"system": "acute hyperlipidemia mice", "assay": "Acute hyperlipidemia mice", "assay_type": "in vivo", "settings": "in words, no data shown"}, "NASH": {"system": "NASH", "assay": "NASH pharmacodynamic study", "assay_type": "in vivo", "settings": "in words, no data shown"}, "[4]": {"settings": "after oral administration, all time points"}}, "note": "“Also recorded” adds a separate entry of the source.", "data": [{"molecule": "N#Cc1cn(-c2cc(Cl)c(Oc3cc(C4CCC4)c(=O)[nH]n3)c(Cl)c2)c(=O)[nH]c1=O", "note": "[YWS01125, 1-(3,5-dichloro-4-((5-cyclobutyl-6-oxo-1,6-dihydropyridazin-3-yl)oxy)phenyl)-2,4-dioxo-1,2,3,4-tetrahydropyrimidine-5-carbonitrile]", "values": [{"measurement": "Concentration in the brain", "setting": "[1]; [4]", "value": "not detected"}, {"measurement": "Concentration in the muscle", "setting": "[1]; [4]", "value": "not detected"}, {"measurement": "Time of highest tissue level", "setting": "[1]; heart, liver, kidneys, lungs, small intestine, colon, fat", "value": 1, "unit": "h"}, {"measurement": "Colon tissue concentration", "setting": "[1]; oral 20 mg/kg, 15 min", "value": "46.70 ± 2.27"}, {"measurement": "Fat tissue concentration", "setting": "[1]; oral 20 mg/kg, 15 min", "value": "9.37 ± 0.88"}, {"measurement": "Heart tissue concentration", "setting": "[1]; oral 20 mg/kg, 15 min", "value": "7.00 ± 1.05"}, {"measurement": "Kidneys tissue concentration", "setting": "[1]; oral 20 mg/kg, 15 min", "value": "129.83 ± 18.31"}, {"measurement": "Liver tissue concentration", "setting": "[1]; oral 20 mg/kg, 15 min", "value": "69.93 ± 11.25"}, {"measurement": "Lungs tissue concentration", "setting": "[1]; oral 20 mg/kg, 15 min", "value": "5.51 ± 1.22"}, {"measurement": "Small intestine tissue concentration", "setting": "[1]; oral 20 mg/kg, 15 min", "value": "31.30 ± 6.38"}, {"measurement": "Spleen tissue concentration", "setting": "[1]; oral 20 mg/kg, 15 min", "value": "6.26 ± 0.60"}, {"measurement": "Stomach tissue concentration", "setting": "[1]; oral 20 mg/kg, 15 min", "value": "378.67 ± 36.89"}, {"measurement": "Testes tissue concentration", "setting": "[1]; oral 20 mg/kg, 15 min", "value": "15.37 ± 2.15"}, {"measurement": "Colon tissue concentration", "setting": "[1]; oral 20 mg/kg, 1 h", "value": "357.67 ± 35.31"}, {"measurement": "Fat tissue concentration", "setting": "[1]; oral 20 mg/kg, 1 h", "value": "8.69 ± 1.45"}, {"measurement": "Heart tissue concentration", "setting": "[1]; oral 20 mg/kg, 1 h", "value": "14.41 ± 5.97"}, {"measurement": "Kidneys tissue concentration", "setting": "[1]; oral 20 mg/kg, 1 h", "value": "230.50 ± 15.53"}, {"measurement": "Liver tissue concentration", "setting": "[1]; oral 20 mg/kg, 1 h", "value": "283.67 ± 40.72"}, {"measurement": "Lungs tissue concentration", "setting": "[1]; oral 20 mg/kg, 1 h", "value": "60.76 ± 4.97"}, {"measurement": "Small intestine tissue concentration", "setting": "[1]; oral 20 mg/kg, 1 h", "value": "373.00 ± 33.88"}, {"measurement": "Stomach tissue concentration", "setting": "[1]; oral 20 mg/kg, 1 h", "value": "247.17 ± 24.96"}, {"measurement": "Testes tissue concentration", "setting": "[1]; oral 20 mg/kg, 1 h", "value": "6.08 ± 4.70"}, {"measurement": "Colon tissue concentration", "setting": "[1]; oral 20 mg/kg, 6 h", "value": "60.23 ± 3.87"}, {"measurement": "Heart tissue concentration", "setting": "[1]; oral 20 mg/kg, 6 h", "value": "4.01 ± 1.27"}, {"measurement": "Kidneys tissue concentration", "setting": "[1]; oral 20 mg/kg, 6 h", "value": "12.73 ± 1.65"}, {"measurement": "Liver tissue concentration", "setting": "[1]; oral 20 mg/kg, 6 h", "value": "16.63 ± 1.72"}, {"measurement": "Small intestine tissue concentration", "setting": "[1]; oral 20 mg/kg, 6 h", "value": "61.03 ± 4.06"}, {"measurement": "Stomach tissue concentration", "setting": "[1]; oral 20 mg/kg, 6 h", "value": "54.49 ± 10.20"}, {"measurement": "Time of highest tissue level", "setting": "[1]; spleen, stomach, testes", "value": 0.25, "unit": "h"}, {"measurement": "Metabolic stability / metabolite formation in liver microsomes", "setting": "[2]", "value": "no metabolites; also recorded: stable"}, {"measurement": "Selectivity and activity for THRβ", "setting": "THRβ", "value": "excellent activity; also recorded: best selectivity and activity"}, {"measurement": "Cytotoxicity", "setting": "Cytotoxicity", "value": "low cytotoxicity"}, {"measurement": "Effect in acute liver injury model", "setting": "acute liver injury model", "value": "hepatoprotective effect"}, {"measurement": "Effect on acute hyperlipidemia mice", "setting": "[3]", "value": "lipid-lowering function"}, {"measurement": "Effect on NASH", "setting": "NASH", "value": "alleviation of NASH"}]}]}
